Assay results reported in ChEMBL document CHEMBL1909046, “DrugMatrix in vitro pharmacology data”.

Key:
[1] = DRUGMATRIX: Calcium Channel Type L, Dihydropyridine radioligand binding (ligand: [3H] Nitrendipine); format: cell membranes, Rattus norvegicus, Wistar, Cerebral cortex, Membrane; conditions: Not Active = under 50% inhibition at 10 µM
[2] = target: Sigma non-opioid intracellular receptor 1 (Homo sapiens, UniProt Q99720); test: DRUGMATRIX: Sigma1 radioligand binding (ligand: [3H] Haloperidol); format: cell membranes, Jurkat, Membrane; conditions: jurkat; Not Active = under 50% inhibition at 10 µM
[3] = target: Prostaglandin G/H synthase 1 (Homo sapiens, UniProt P23219); test: biochemical; format: tissue-based, Platelet; conditions: platelet;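 note: inhibition of COX-1 enzyme activity, with arachidonic acid supplied as substrate; in other assays of this panel Not Active means under 50% inhibition at 10 µM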
Glycine receptor = Glycine receptor (Rattus norvegicus, UniProt P22771+P24524+P07727+P20781); format: cell membranes, Wistar, Spinal cord, Membrane; note: in other assays of this panel Not Active means under 50% inhibition at 10 µM
[4] = DRUGMATRIX: Nicotinic Acetylcholine radioligand binding (ligand: [125I] Epibatidine); format: cell membranes, Membrane; conditions: imr-32; Not Active = under 50% inhibition at 10 µM
[5] = target: cGMP-specific 3',5'-cyclic phosphodiesterase (Homo sapiens, UniProt O76074); test: DRUGMATRIX: Phosphodiesterase PDE5 enzyme inhibition (substrate: [3H]cGMP + cGMP); format: tissue-based; conditions: platelet; Not Active = under 50% inhibition at 10 µM
Cytochrome P450 2D6 = Cytochrome P450 2D6 (Homo sapiens, UniProt P10635); conditions: bti-tn-5b1-4; note: in other assays of this panel Not Active means under 50% inhibition at 10 µM
Cytochrome P450 2D6, sequence (P10635 whole entry): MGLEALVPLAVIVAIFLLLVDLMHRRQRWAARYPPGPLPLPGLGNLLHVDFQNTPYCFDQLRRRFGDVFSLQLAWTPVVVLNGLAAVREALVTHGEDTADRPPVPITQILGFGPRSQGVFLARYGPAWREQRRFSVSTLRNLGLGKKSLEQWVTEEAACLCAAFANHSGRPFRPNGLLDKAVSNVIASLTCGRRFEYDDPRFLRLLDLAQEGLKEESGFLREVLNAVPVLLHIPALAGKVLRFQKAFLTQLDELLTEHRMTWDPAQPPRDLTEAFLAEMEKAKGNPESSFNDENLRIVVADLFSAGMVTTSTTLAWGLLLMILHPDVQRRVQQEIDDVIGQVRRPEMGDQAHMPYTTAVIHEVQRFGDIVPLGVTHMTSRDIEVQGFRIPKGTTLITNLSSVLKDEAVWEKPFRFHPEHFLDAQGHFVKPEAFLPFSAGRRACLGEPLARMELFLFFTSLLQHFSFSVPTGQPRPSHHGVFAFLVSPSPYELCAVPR

Prostaglandin G/H synthase 1, sequence (P23219 whole entry): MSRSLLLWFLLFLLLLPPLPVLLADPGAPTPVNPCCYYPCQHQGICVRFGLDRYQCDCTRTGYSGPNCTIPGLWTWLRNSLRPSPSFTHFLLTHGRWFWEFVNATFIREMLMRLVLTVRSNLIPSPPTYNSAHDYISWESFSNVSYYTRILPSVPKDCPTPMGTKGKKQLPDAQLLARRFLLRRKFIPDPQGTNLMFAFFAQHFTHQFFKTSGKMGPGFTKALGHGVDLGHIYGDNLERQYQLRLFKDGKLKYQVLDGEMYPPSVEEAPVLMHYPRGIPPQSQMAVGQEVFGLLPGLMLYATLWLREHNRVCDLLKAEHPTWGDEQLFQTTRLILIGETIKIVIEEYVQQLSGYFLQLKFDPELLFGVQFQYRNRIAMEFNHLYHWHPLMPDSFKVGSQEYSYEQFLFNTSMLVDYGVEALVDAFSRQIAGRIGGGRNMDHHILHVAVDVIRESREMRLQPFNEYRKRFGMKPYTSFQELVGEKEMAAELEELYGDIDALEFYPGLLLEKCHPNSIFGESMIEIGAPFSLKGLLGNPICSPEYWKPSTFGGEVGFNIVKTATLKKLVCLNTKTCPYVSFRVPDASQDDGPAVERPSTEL
Sigma non-opioid intracellular receptor 1, sequence (Q99720 whole entry): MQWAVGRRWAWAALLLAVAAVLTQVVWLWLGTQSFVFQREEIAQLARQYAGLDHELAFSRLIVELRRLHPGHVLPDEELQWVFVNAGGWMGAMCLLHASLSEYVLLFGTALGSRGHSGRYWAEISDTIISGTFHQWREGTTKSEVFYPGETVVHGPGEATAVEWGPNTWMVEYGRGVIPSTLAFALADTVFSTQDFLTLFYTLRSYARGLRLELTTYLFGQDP

Nc1ccn([C@@H]2CS[C@H](CO)O2)c(=O)n1 [LAMIVUDINE]
Not Active: IC50 [1] | Ki [1] | IC50 [2] | IC50 [3] | IC50 (Glycine receptor) | IC50 [4] | Ki [4] | IC50 [5] | IC50 (Cytochrome P450 2D6) | Ki (Cytochrome P450 2D6)

CC(C)[C@H]1CC[C@H](C(=O)N[C@H](Cc2ccccc2)C(=O)O)CC1 [NATEGLINIDE]
Not Active: IC50 [1] | Ki [1] | IC50 [2] | IC50 [3] | IC50 (Glycine receptor) | IC50 [4] | Ki [4] | IC50 [5] | IC50 (Cytochrome P450 2D6) | Ki (Cytochrome P450 2D6)

CCCC(=O)Nc1ccc(OCC(O)CNC(C)C)c(C(C)=O)c1 (stereo not given) [ACEBUTOLOL]
Not Active: IC50 [1] | Ki [1] | IC50 [2] | IC50 [3] | IC50 (Glycine receptor) | IC50 [4] | Ki [4] | IC50 [5] | IC50 (Cytochrome P450 2D6) | Ki (Cytochrome P450 2D6)

C[C@]12CC[C@@H]3c4ccc(OC(=O)c5ccccc5)cc4CC[C@H]3[C@@H]1CC[C@@H]2O [ESTRADIOL BENZOATE]
Not Active: IC50 [1] | Ki [1] | IC50 [2] | IC50 [3] | IC50 (Glycine receptor) | IC50 [4] | Ki [4] | IC50 [5] | IC50 (Cytochrome P450 2D6) | Ki (Cytochrome P450 2D6)

CC1(C)O[C@@H]2C[C@H]3[C@@H]4C[C@H](F)C5=CC(=O)C=C[C@]5(C)[C@H]4[C@@H](O)C[C@]3(C)[C@]2(C(=O)CO)O1 [FLUNISOLIDE]
Not Active: IC50 [1] | Ki [1] | IC50 [2] | IC50 [3] | IC50 (Glycine receptor) | IC50 [4] | Ki [4] | IC50 [5] | IC50 (Cytochrome P450 2D6) | Ki (Cytochrome P450 2D6)

CC(=O)Nc1ccc(O)cc1 [ACETAMINOPHEN]
Not Active: IC50 [1] | Ki [1] | IC50 [2] | IC50 [3] | IC50 (Glycine receptor) | IC50 [4] | Ki [4] | IC50 [5] | IC50 (Cytochrome P450 2D6) | Ki (Cytochrome P450 2D6)

CCc1c2c(nc3ccc(OC(=O)N4CCC(N5CCCCC5)CC4)cc13)-c1cc3c(c(=O)n1C2)COC(=O)[C@]3(O)CC [IRINOTECAN]
Not Active: IC50 [1] | Ki [1] | IC50 [2] | IC50 [3] | IC50 (Glycine receptor) | IC50 [4] | Ki [4] | IC50 [5] | IC50 (Cytochrome P450 2D6) | Ki (Cytochrome P450 2D6)

C[C@]12CC[C@@H]3c4ccc(O)cc4CC[C@H]3[C@@H]1CC[C@@H]2O [ESTRADIOL]
Not Active: IC50 [1] | Ki [1] | IC50 [2] | IC50 [3] | IC50 (Glycine receptor) | IC50 [4] | Ki [4] | IC50 [5] | IC50 (Cytochrome P450 2D6) | Ki (Cytochrome P450 2D6)

C#C[C@]1(OC(C)=O)CC[C@H]2[C@@H]3CCC4=CC(=O)CC[C@@H]4[C@H]3CC[C@@]21C [NORETHINDRONE ACETATE]
Not Active: IC50 [1] | Ki [1] | IC50 [2] | IC50 [3] | IC50 (Glycine receptor) | IC50 [4] | Ki [4] | IC50 [5] | IC50 (Cytochrome P450 2D6) | Ki (Cytochrome P450 2D6)

ClC(Cl)Cl [CHLOROFORM]
Not Active: IC50 [1] | Ki [1] | IC50 [2] | IC50 [3] | IC50 (Glycine receptor) | IC50 [4] | Ki [4] | IC50 [5] | IC50 (Cytochrome P450 2D6) | Ki (Cytochrome P450 2D6)

N=C(N)NC(=O)c1nc(Cl)c(N)nc1N [AMILORIDE]
Not Active: IC50 [1] | Ki [1] | IC50 [2] | IC50 [3] | IC50 (Glycine receptor) | IC50 [4] | Ki [4] | IC50 [5] | IC50 (Cytochrome P450 2D6) | Ki (Cytochrome P450 2D6)

Cc1ccc(S(=O)(=O)NC(=O)NN2CC3CCCC3C2)cc1 (stereo not given) [GLICLAZIDE]
Not Active: IC50 [1] | Ki [1] | IC50 [2] | IC50 [3] | IC50 (Glycine receptor) | IC50 [4] | Ki [4] | IC50 [5] | IC50 (Cytochrome P450 2D6) | Ki (Cytochrome P450 2D6)

COc1cccc2c1C(=O)c1c(O)c3c(c(O)c1C2=O)C[C@@](O)(C(=O)CO)C[C@@H]3O[C@H]1C[C@H](N)[C@H](O)[C@H](C)O1 [DOXORUBICIN]
Not Active: IC50 [1] | Ki [1] | IC50 [2] | IC50 [3] | IC50 (Glycine receptor) | IC50 [4] | Ki [4] | IC50 [5] | IC50 (Cytochrome P450 2D6) | Ki (Cytochrome P450 2D6)

Cn1c(=O)c2c(ncn2CC2OCCO2)n(C)c1=O [DOXOFYLLINE]
Not Active: IC50 [1] | Ki [1] | IC50 [2] | IC50 [3] | IC50 (Glycine receptor) | IC50 [4] | Ki [4] | IC50 [5] | IC50 (Cytochrome P450 2D6) | Ki (Cytochrome P450 2D6)

Cc1cc2cc3c(C)cc(=O)oc3c(C)c2o1 [TRIOXSALEN]
Not Active: IC50 [1] | Ki [1] | IC50 [2] | IC50 [3] | IC50 (Glycine receptor) | IC50 [4] | Ki [4] | IC50 [5] | IC50 (Cytochrome P450 2D6) | Ki (Cytochrome P450 2D6)

Cc1ncc([N+](=O)[O-])n1CCO [METRONIDAZOLE]
Not Active: IC50 [1] | Ki [1] | IC50 [2] | IC50 [3] | IC50 (Glycine receptor) | IC50 [4] | Ki [4] | IC50 [5] | IC50 (Cytochrome P450 2D6) | Ki (Cytochrome P450 2D6)

C=C1CC[C@H](O)C/C1=C/C=C1\CCC[C@]2(C)[C@@H]([C@H](C)CCCC(C)C)CC[C@@H]12 [CHOLECALCIFEROL]
Not Active: IC50 [1] | Ki [1] | IC50 [2] | IC50 [3] | IC50 (Glycine receptor) | IC50 [4] | Ki [4] | IC50 [5] | IC50 (Cytochrome P450 2D6) | Ki (Cytochrome P450 2D6)

CC(=O)OCC(=O)[C@@]1(O)CC[C@H]2[C@@H]3CCC4=CC(=O)CC[C@]4(C)[C@H]3C(=O)C[C@@]21C [CORTISONE ACETATE]
Not Active: IC50 [1] | Ki [1] | IC50 [2] | IC50 [3] | IC50 (Glycine receptor) | IC50 [4] | Ki [4] | IC50 [5] | IC50 (Cytochrome P450 2D6) | Ki (Cytochrome P450 2D6)

COc1ccc2[nH]c([S+]([O-])Cc3ncc(C)c(OC)c3C)nc2c1 (stereo not given) [OMEPRAZOLE]
Not Active: IC50 [1] | Ki [1] | IC50 [2] | IC50 [3] | IC50 (Glycine receptor) | IC50 [4] | Ki [4] | IC50 [5] | IC50 (Cytochrome P450 2D6) | Ki (Cytochrome P450 2D6)

C[C@@]12C(=O)OC(=O)[C@]1(C)[C@H]1CC[C@@H]2O1 [CANTHARIDIN]
Not Active: IC50 [1] | Ki [1] | IC50 [2] | IC50 [3] | IC50 (Glycine receptor) | IC50 [4] | Ki [4] | IC50 [5] | IC50 (Cytochrome P450 2D6) | Ki (Cytochrome P450 2D6)
